Source: PubChem BioAssay AID1259407 (Chemical Carcinogenesis Research Information System (CCRIS), 2018)
The source made the active and inactive calls. How the calls were made is not given here.

Test system: CCRIS mutagenicity, Ames/micronucleus/aberration tests
Assay: CCRIS mutagenicity studies
[1] = Test System: AMES SALMONELLA TYPHIMURIUM, Strain/Indicator: TA100, Metabolic Activation: NONE, Method: STANDARD PLATE
[2] = Test System: AMES SALMONELLA TYPHIMURIUM, Strain/Indicator: TA98, Metabolic Activation: NONE, Method: PREINCUBATION
[3] = Test System: AMES SALMONELLA TYPHIMURIUM, Strain/Indicator: TA100, Metabolic Activation: NONE, Method: PREINCUBATION
[4] = Test System: AMES SALMONELLA TYPHIMURIUM, Strain/Indicator: TA98, Metabolic Activation: NONE, Method: STANDARD PLATE
[5] = Test System: AMES SALMONELLA TYPHIMURIUM, Strain/Indicator: TA100, Metabolic Activation: RAT, LIVER, S-9, AROCLOR 1254, Method: STANDARD PLATE

Measured: mutagenic call

CNc1nncc2ccccc12
inactive: Test System: UDS RODENT HEPATOCYTES, Strain/Indicator: THY INCORP (NON-S-PHASE), Metabolic Activation: HOST-MEDIATED, Method: IN VIVO-IN VITRO inactive; negative
active: [1] active; positive | Test System: AMES SALMONELLA TYPHIMURIUM, Strain/Indicator: TA100, Metabolic Activation: RAT, LIVER, S-9, PHENOBARBITAL, Method: STANDARD PLATE active; positive | Test System: UDS RAT HEPATOCYTES, Strain/Indicator: THY INCORP, Metabolic Activation: NONE, Method: AUTORADIOGRAPHY active; positive

CN1CCN(C)CC1
inactive: [2] inactive; negative | Test System: AMES SALMONELLA TYPHIMURIUM, Strain/Indicator: TA98, Metabolic Activation: RAT, LIVER, S-9, PCB, Method: PREINCUBATION inactive; negative | [3] inactive; negative | Test System: AMES SALMONELLA TYPHIMURIUM, Strain/Indicator: TA100, Metabolic Activation: RAT, LIVER, S-9, PCB, Method: PREINCUBATION inactive; negative

CCC(=O)N(O)c1ccc(-c2ccccc2)cc1
active: Test System: AMES SALMONELLA TYPHIMURIUM, Strain/Indicator: TA98, Metabolic Activation: RAT, LIVER, MICROSOMES, Method: PREINCUBATION active; positive
inactive: [2] inactive; negative | Test System: AMES SALMONELLA TYPHIMURIUM, Strain/Indicator: TA98, Metabolic Activation: RAT, LIVER, CYTOSOL, Method: PREINCUBATION inactive; negative

C[C@]12CCC=C(C=O)[C@@]1(C=O)C2
active: [4] active; positive | [1] active; positive

N[C@@H](Cc1ccc(N(CCCl)CCCl)cc1)C(=O)O
inactive: [4] inactive; negative | Test System: AMES SALMONELLA TYPHIMURIUM, Strain/Indicator: TA98, Metabolic Activation: RAT, LIVER, S-9, AROCLOR 1254 (30%), Method: PREINCUBATION inactive; negative | Test System: AMES SALMONELLA TYPHIMURIUM, Strain/Indicator: TA1537, Metabolic Activation: NONE, Method: STANDARD PLATE inactive; negative | Test System: E. COLI, Strain/Indicator: WP2 (HCR), Metabolic Activation: S-9, Method: STANDARD PLATE inactive; negative
active: End Point: In vivo chromosomal aberrations, Test System: Bone marrow cells, Species: Mouse, Strain/Sex: C57B1/6 / Female (base p53+/-), Route: Oral (gavage) active; positive | End Point: In vivo chromosomal aberrations, Test System: Splenocytes, Species: Mouse, Strain/Sex: C57B1/6 / Female (base p 53+/-), Route: Oral (gavage) active; positive | Test System: AMES SALMONELLA TYPHIMURIUM, Strain/Indicator: TA100, Metabolic Activation: HAMSTER, LIVER, S-9, AROCLOR 1254 (30%), Method: PREINCUBATION active; positive | [3] active; positive | [1] active; positive | Test System: AMES SALMONELLA TYPHIMURIUM, Strain/Indicator: TA100, Metabolic Activation: RAT, LIVER, S-9, AROCLOR 1254 (30%), Method: PREINCUBATION active; positive | [5] active; positive | Test System: AMES SALMONELLA TYPHIMURIUM, Strain/Indicator: TA1535, Metabolic Activation: NONE, Method: STANDARD PLATE active; positive | Test System: AMES SALMONELLA TYPHIMURIUM, Strain/Indicator: TA1535, Metabolic Activation: RAT, LIVER, S-9, AROCLOR 1254, Method: STANDARD PLATE active; positive

Cc1cc(S(=O)(=O)O)c(N)cc1Cl
inactive: [4] inactive; negative | Test System: AMES SALMONELLA TYPHIMURIUM, Strain/Indicator: TA100, Metabolic Activation: HAMSTER, LIVER, S-9, AROCLOR 1254, Method: STANDARD PLATE inactive; negative | [1] inactive; negative | [5] inactive; negative | Test System: Ames Salmonella typhimurium, Strain/Indicator: TA98, Metabolic Activation: None, Method: Preincubation inactive; negative | Test System: Ames Salmonella typhimurium, Strain/Indicator: TA98, Metabolic Activation: Rat, Liver, S9, Sodium phenobarbital and 5,6-benzoflavone (10%), Method: Preincubation inactive; negative | Test System: Ames Salmonella typhimurium, Strain/Indicator: TA100, Metabolic Activation: None, Method: Preincubation inactive; negative | Test System: Ames Salmonella typhimurium, Strain/Indicator: TA100, Metabolic Activation: Rat, Liver, S9, Sodium phenobarbital and 5,6-benzoflavone (10%), Method: Preincubation inactive; negative | Test System: Ames Salmonella typhimurium, Strain/Indicator: TA1535, Metabolic Activation: None, Method: Preincubation inactive; negative | Test System: Ames Salmonella typhimurium, Strain/Indicator: TA1535, Metabolic Activation: Rat, Liver, S9, Sodium phenobarbital and 5,6-benzoflavone (10%), Method: Preincubation inactive; negative | Test System: Ames Salmonella typhimurium, Strain/Indicator: TA1537, Metabolic Activation: None, Method: Preincubation inactive; negative | Test System: Ames Salmonella typhimurium, Strain/Indicator: TA1537, Metabolic Activation: Rat, Liver, S9, Sodium phenobarbital and 5,6-benzoflavone (10%), Method: Preincubation inactive; negative | Test System: E. coli, Strain/Indicator: WP2uvrA/pKM101, Metabolic Activation: None, Method: Preincubation inactive; negative | Test System: E. coli, Strain/Indicator: WP2uvrA/pKM101, Metabolic Activation: Rat, Liver, S9, Sodium phenobarbital and 5,6-benzoflavone (10%), Method: Preincubation inactive; negative | Test System: MOUSE LYMPHOMA, Strain/Indicator: L5178Y (TK+/TK-), Metabolic Activation: NONE, Method: SUSPENSION/PLATE inactive; negative. reevaluation of results: negative | Test System: MOUSE LYMPHOMA, Strain/Indicator: L5178Y (TK+/TK-), Metabolic Activation: RAT, LIVER, S-9, AROCLOR 1254, Method: SUSPENSION/PLATE inactive; negative. reevaluation of results: equivocal | Test System: UDS RODENT HEPATOCYTES, Strain/Indicator: THY INCORP (NON-S-PHASE), Metabolic Activation: NONE, Method: AUTORADIOGRAPHY inactive; negative
active: Test System: AMES SALMONELLA TYPHIMURIUM, Strain/Indicator: TA98, Metabolic Activation: HAMSTER, LIVER, S-9, AROCLOR 1254, Method: STANDARD PLATE active; positive | Test System: AMES SALMONELLA TYPHIMURIUM, Strain/Indicator: TA98, Metabolic Activation: RAT, LIVER, S-9, AROCLOR 1254, Method: STANDARD PLATE active; positive

CCCC(=O)N=c1sn(C(=O)CCC)c2ccc([N+](=O)[O-])cc12
active: Test System: AMES SALMONELLA TYPHIMURIUM, Strain/Indicator: TA100, Metabolic Activation: S-9, Method: STANDARD PLATE active; positive
